Laboratory results: patent publication US7906491B2 (Univisitair Medisch Centrum Utrecht, priority 2002, dated 2011)

Columns and labels:
[1] = tested on: Ovcar3 cells; test: Adhesion assay of Ovcar3 cells to fibronectin; format: cell-based
Description: A: 8-pCPT-2′-O-Me-cAMP stimulates cell adhesion. Upper panel: quantification of Ovcar3 cells adhering to fibronectin after treatment with increasing concentrations of 8-pCPT-2′-O-Me-cAMP. Lower panel: Ovcar3 cells were treated with increasing concentrations of 8-pCPT-2′-O-Me-cAMP for 15 min, cells were lysed and analyzed for activation of Rap1 (upper blot) and CREB (lower blot). Total Rap1 levels are shown (middle blot). B: 8-pCPT-2′-O-Me-cAMP increases the rate of cell adhesion. Upper panel: quantification of Ovcar3 cells adhering to fibronectin at various time points. Lower panel: cells were treated with 60 μM 8-pCPT-2′-O-Me-cAMP for the indicated times. Cell lysates were analyzed for activation of Rap1 (upper blot) and CREB (lower blot). Total levels of Rap1 in cell lysates are shown (middle blot). C: Ovcar3 cells were either pre-incubated at 37° C. for 30 min with the PKA inhibitor H-89 (10 μM) 30 min prior to seeding onto the wells (‘Short’) or H-89 was added 30 min prior to trypsinization and during the recovery period (‘Long’) and seeded onto wells in the absence or presence of 8-pCPT-2′-O-Me-cAMP (100 μM). Cells were allowed to adhere for 1 h. D, cAMP-induced adhesion to fibronectin is blocked by inhibitors of Rap1. Left panel: Ovcar3 cells were transiently transfected with either mock DNA, increasing concentrations of HA-Rap1GAP II (0.5, 1, 2 or 6 μg, respectively), HA-Rap1GAPI (6 μg) or HA-RBD of RalGDS (6 μg), respectively. Cells were treated with 8-Br-cAMP or 8-pCPT-2′-O-Me-cAMP and adhesion to fibronectin was determined. […]
In functional assays, 8-pCPT-2′-O-Me-cAMP appeared to induce integrin-mediated cell adhesion through Epac and Rap1. […] The cells were seeded onto fibronectin-coated plates in the presence or absence of 8-pCPT-2′-O-Me-cAMP and the amount of cells that adhered after a certain period of time was quantified. […]
24-well plates were coated overnight with 2 μg/ml fibronectin (Sigma, St. Louis, Mo., USA) in sodium bicarbonate buffer (Sigma, St. Louis, Mo., USA). […] Cells were centrifuged, counted and resuspended at 3×10^5 cells/ml in serum-free RPMI with 0.5% BSA. […]

[2] = tested on: Rap1; test: Rap1 activation assay (read-out for Epac) in NIH3T3-A14-Epac1 cells; format: cell-based; conditions: 15 min
Description: Upper panel: NIH3T3-A14-Epac1 cells were treated for 15 min with 8-Br-cAMP, and cell lysates were analyzed for activation of Rap1 and phosphorylation of CREB. Lower panel: NIH3T3-A14-Epac1 cells were treated in duplicate for 15 min with increasing concentrations of 8-pCPT-2′-O-Me-cAMP. Cells were lysed and equal amounts of cell lysate were incubated with precoupled GST-RalGDSRBD and Rap1 was assayed by immunoblotting with Rap1 antibody.
Therefore, 8-CPT-2′-O-Me-cAMP was tested in NIH3T3-A14-Epac1 cells for the activation of Epac, using Rap1 as a read-out, and of PKA, using phosphorylation of the common PKA substrate CREB 29 as a read-out.
NIH3T3-A14 cells, stably expressing Epac1, were grown in DMEM with 10% fetal calf serum and 2 μg/ml puromycin. NIH-OVCAR3 (Ovcar3) cells were maintained in RPMI with 10% fetal calf serum. Transient transfection of Ovcar3 cells was performed using the FuGENE 6 transfection reagent (Roche Diagnostics, Mannheim, Germany) according to the manufacturer's procedures, using 6 μg total DNA including a CMV-luciferase plasmid (0.2 μg).
Rap activation assays were performed as described previously (16-18). Briefly, cells were lysed in lysis buffer containing 10% glycerol, 1% Nonidet P-40, 50 mM Tris-Cl pH7.5, 200 mM NaCl, 2mM MgCl2, 1 μM leupeptin, 0.1 μM aprotinin, 5 mM NaF, 1 mM NaVO3. Lysates were clarified by centrifugation and incubated with GST-tagged RalGDS-RBD pre-coupled to glutathione beads to specifically pull down the GTP-bound forms of Rap1. Samples were incubated for 1 hr at 4° C. while tumbling. Beads were washed four times in lysis buffer, and the remaining fluid was removed with an insulin syringe. Proteins were eluted with Laemmli sample buffer and analyzed by sodium dodecyl sulphate (SDS)-polyacrylamide gel electrophoresis and Western blotting using Rap1 antibodies. As a control, Rap1 levels in whole cell lysates were determined.

[3] = tested on: type I holoenzyme of PKA (PKAI); test: In vitro activation of cAMP-dependent protein kinase, type I holoenzyme (kemptide substrate); format: biochemical; conditions: compared to cAMP, FIG. 5
Description: Cyclic AMP dependent protein kinase I and II were reconstituted from isolated subunits and assayed for kinase activity using […] kemptide as substrate, as described previously (15).

[4] = tested on: Rap1; test: Rap1 activation assay in Ovcar3 cells; format: cell-based
Description: A: 8-pCPT-2′-O-Me-cAMP stimulates cell adhesion. Upper panel: quantification of Ovcar3 cells adhering to fibronectin after treatment with increasing concentrations of 8-pCPT-2′-O-Me-cAMP. Lower panel: Ovcar3 cells were treated with increasing concentrations of 8-pCPT-2′-O-Me-cAMP for 15 min, cells were lysed and analyzed for activation of Rap1 (upper blot) and CREB (lower blot). Total Rap1 levels are shown (middle blot). B: 8-pCPT-2′-O-Me-cAMP increases the rate of cell adhesion. Upper panel: quantification of Ovcar3 cells adhering to fibronectin at various time points. Lower panel: cells were treated with 60 μM 8-pCPT-2′-O-Me-cAMP for the indicated times. Cell lysates were analyzed for activation of Rap1 (upper blot) and CREB (lower blot). Total levels of Rap1 in cell lysates are shown (middle blot). C: Ovcar3 cells were either pre-incubated at 37° C. for 30 min with the PKA inhibitor H-89 (10 μM) 30 min prior to seeding onto the wells (‘Short’) or H-89 was added 30 min prior to trypsinization and during the recovery period (‘Long’) and seeded onto wells in the absence or presence of 8-pCPT-2′-O-Me-cAMP (100 μM). Cells were allowed to adhere for 1 h. D, cAMP-induced adhesion to fibronectin is blocked by inhibitors of Rap1. Left panel: Ovcar3 cells were transiently transfected with either mock DNA, increasing concentrations of HA-Rap1GAP II (0.5, 1, 2 or 6 μg, respectively), HA-Rap1GAPI (6 μg) or HA-RBD of RalGDS (6 μg), respectively. Cells were treated with 8-Br-cAMP or 8-pCPT-2′-O-Me-cAMP and adhesion to fibronectin was determined. Right upper panel: luciferase counts of total input cells per well in the above experiment are shown. Right lower panel: expression of HA-Rap1GAPs in the above experiment is shown.
Rap activation assays were performed as described previously (16-18). […] Proteins were eluted with Laemmli sample buffer and analyzed by sodium dodecyl sulphate (SDS)-polyacrylamide gel electrophoresis and Western blotting using Rap1 antibodies. As a control, Rap1 levels in whole cell lysates were determined.

SMILES: CO[C@@H]1[C@@H]2OP(=O)(O)OC[C@H]2O[C@H]1n1c(Sc2ccc(Cl)cc2)nc2c(N)ncnc21 [Compound I-007, 8-(4-chloro-phenylthio)-2′-O-methyladenosine-3′,5′-cyclic monophosphate]
- EC50 ([1]; Homo sapiens, OVCAR-3, FIG. 7A, read-out: EC50 of enhanced cell adhesion to fibronectin): ~30 µM
- time after which increased adhesion was already observed ([1]; fibronectin, time-course, FIG. 7B): 30 min
- activation of Rap1 ([2]; 8-Br-cAMP 1 mM): induced the activation of Rap1 only
- concentration at which Rap1 is already activated ([2]; dose-response): 10 µM
- ability to activate the type I holoenzyme of PKA [3]: greatly impaired
- Rap1 activation in time-course ([4]; 60 μM, FIG. 7B): rapid and sustained Rap1 activation
- EC50 ([4]; Homo sapiens, OVCAR-3, 0.25 h, 15 min, FIG. 7A): ~30 µM
